The conditions of data set [1]: 298.15 K; 101.3 kPa; Liquid.
Data set [2] in a line: xn = mol fraction of the nth substance listed. The conditions noted are these: 298.15 K, 101.3 kPa, Liquid.

Numbers after ± are expanded uncertainties.

Consider `Cc1ccccc1C` [1,2-dimethylbenzene], for which, in data set [1], the mass density is reported as 875.2 ± 1 kg/m3, the speed of sound was 1349 ± 3 m/s and the viscosity came out at 0.768 ± 0.013 mPa·s.
Consider `Cc1ccccc1C` [1,2-dimethylbenzene] + CCC(C)=O, for which, in data set [2] (x1 = 1), the mass density is 875.2 ± 1 kg/m3, the speed of sound worked out at 1349 ± 3 m/s and the viscosity is 0.768 ± 0.013 mPa·s.
In the case of `Cc1cccc(C)c1` [1,3-dimethylbenzene], in data set [1], the mass density was 859.4 ± 1 kg/m3, the speed of sound is reported as 1323 ± 4 m/s and the viscosity worked out at 0.587 ± 0.011 mPa·s.
As to `Cc1cccc(C)c1` [1,3-dimethylbenzene] + CCC(C)=O, the mass density in data set [2] (x1 = 0.0428) is on record as 803.5 ± 0.9 kg/m3; in data set [2] (x1 = 0.1084), 809.2 ± 0.9 kg/m3; in data set [2] (x1 = 0.2261), 818.3 ± 0.9 kg/m3; in data set [2] (x1 = 0.3524) it was 827 ± 0.9 kg/m3; in data set [2] (x1 = 0.4941) it was 835.7 ± 0.9 kg/m3; in data set [2] (x1 = 0.646) it was 844.1 ± 0.9 kg/m3. Also, the mass density amounted to 852 ± 1 kg/m3 in data set [2] (x1 = 0.8137), 856.7 ± 1 kg/m3 in data set [2] (x1 = 0.9235) and 859.4 ± 1 kg/m3 in data set [2] (x1 = 1). The speed of sound in data set [2] (x1 = 0.0428) worked out at 1204 ± 4 m/s; in data set [2] (x1 = 0.1084), 1218 ± 4 m/s; in data set [2] (x1 = 0.2261) it was 1240 ± 4 m/s; in data set [2] (x1 = 0.3524), 1256 ± 4 m/s; in data set [2] (x1 = 0.4941), 1273 ± 4 m/s; in data set [2] (x1 = 0.646), 1293 ± 4 m/s. Further, the speed of sound in data set [2] (x1 = 0.8137) turned out to be 1312 ± 4 m/s; in data set [2] (x1 = 0.9235), 1320 ± 4 m/s; in data set [2] (x1 = 1), 1323 ± 4 m/s. Moreover, the viscosity in data set [2] (x1 = 0.0428) was 0.384 ± 0.009 mPa·s; in data set [2] (x1 = 0.1084), 0.398 ± 0.009 mPa·s; in data set [2] (x1 = 0.2261), 0.422 ± 0.009 mPa·s; in data set [2] (x1 = 0.3524), 0.448 ± 0.01 mPa·s; in data set [2] (x1 = 0.4941) it was 0.478 ± 0.01 mPa·s; in data set [2] (x1 = 0.646), 0.51 ± 0.01 mPa·s. Further, the viscosity is 0.546 ± 0.011 mPa·s in data set [2] (x1 = 0.8137), 0.57 ± 0.011 mPa·s in data set [2] (x1 = 0.9235) and 0.587 ± 0.011 mPa·s in data set [2] (x1 = 1).
As for `Cc1ccc(C)cc1` [1,4-dimethylbenzene], in data set [1], the mass density came out at 856.1 ± 1 kg/m3, the speed of sound came out at 1316 ± 3 m/s and the viscosity is recorded as 0.609 ± 0.011 mPa·s.
Turning to `Cc1ccc(C)cc1` [1,4-dimethylbenzene] + CCC(C)=O, in data set [2] (x1 = 1), the mass density was 856.1 ± 1 kg/m3, the speed of sound is recorded as 1316 ± 3 m/s and the viscosity stood at 0.609 ± 0.011 mPa·s.
With `CCC(C)=O` [butanone], in data set [1], the mass density was determined as 799.6 ± 0.9 kg/m3, the speed of sound is 1195 ± 3 m/s and the viscosity is on record as 0.376 ± 0.009 mPa·s.
In the case of `CCC(C)=O` [butanone] + CC(C)c1ccccc1, in data set [2] (x2 = 0), the mass density stood at 799.6 ± 0.9 kg/m3, the speed of sound came to 1195 ± 3 m/s and the viscosity is listed as 0.376 ± 0.009 mPa·s.
For `CCC(C)=O` [butanone] + Cc1ccc(C)cc1, the mass density in data set [2] (x2 = 0) came to 799.6 ± 0.9 kg/m3; in data set [2] (x2 = 0.0429) it was 806 ± 0.9 kg/m3; in data set [2] (x2 = 0.1074), 813.8 ± 0.9 kg/m3; in data set [2] (x2 = 0.2235) it was 823.5 ± 0.9 kg/m3; in data set [2] (x2 = 0.3501) it was 830.4 ± 0.9 kg/m3; in data set [2] (x2 = 0.4895), 836.6 ± 0.9 kg/m3. Moreover, the values for the mass density in data set [2] (x2 = 0.6419), in data set [2] (x2 = 0.8117) and in data set [2] (x2 = 0.9213) were 842.9 ± 0.9 kg/m3, 849.6 ± 1 kg/m3 and 853.2 ± 1 kg/m3, respectively. The speed of sound was 1195 ± 3 m/s in data set [2] (x2 = 0); 1218 ± 3 m/s in data set [2] (x2 = 0.0429); 1237 ± 3 m/s in data set [2] (x2 = 0.1074); 1257 ± 3 m/s in data set [2] (x2 = 0.2235); 1272 ± 3 m/s in data set [2] (x2 = 0.3501); 1289 ± 3 m/s in data set [2] (x2 = 0.4895). The speed of sound in data set [2] (x2 = 0.6419) was 1299 ± 3 m/s; in data set [2] (x2 = 0.8117) it was 1308 ± 3 m/s; in data set [2] (x2 = 0.9213) it was 1313 ± 3 m/s. In addition, the viscosity stood at 0.376 ± 0.009 mPa·s in data set [2] (x2 = 0); 0.392 ± 0.009 mPa·s in data set [2] (x2 = 0.0429); 0.414 ± 0.009 mPa·s in data set [2] (x2 = 0.1074); 0.444 ± 0.009 mPa·s in data set [2] (x2 = 0.2235); 0.471 ± 0.01 mPa·s in data set [2] (x2 = 0.3501); 0.5 ± 0.01 mPa·s in data set [2] (x2 = 0.4895). Moreover, the viscosity in data set [2] (x2 = 0.6419) came to 0.533 ± 0.01 mPa·s; in data set [2] (x2 = 0.8117), 0.572 ± 0.011 mPa·s; in data set [2] (x2 = 0.9213), 0.596 ± 0.011 mPa·s.
In the case of `CCC(C)=O` [butanone] + Cc1cccc(C)c1, in data set [2] (x2 = 0), the mass density is 799.6 ± 0.9 kg/m3, the speed of sound is given as 1195 ± 4 m/s and the viscosity was 0.376 ± 0.009 mPa·s.
Take `CCC(C)=O` [butanone] + Cc1ccccc1C: the mass density in data set [2] (x2 = 0) worked out at 799.6 ± 0.9 kg/m3; in data set [2] (x2 = 0.0437) it was 805.6 ± 0.9 kg/m3; in data set [2] (x2 = 0.1095) it was 813.7 ± 0.9 kg/m3; in data set [2] (x2 = 0.2288) it was 825.7 ± 0.9 kg/m3; in data set [2] (x2 = 0.3564) it was 836.2 ± 0.9 kg/m3; in data set [2] (x2 = 0.4969) it was 846.1 ± 0.9 kg/m3. Further, the values for the mass density in data set [2] (x2 = 0.65), in data set [2] (x2 = 0.8165) and in data set [2] (x2 = 0.9244) were 856 ± 1 kg/m3, 865.9 ± 1 kg/m3 and 871.7 ± 1 kg/m3, respectively. The speed of sound in data set [2] (x2 = 0) is 1195 ± 3 m/s; in data set [2] (x2 = 0.0437), 1208 ± 3 m/s; in data set [2] (x2 = 0.1095) it was 1222 ± 3 m/s; in data set [2] (x2 = 0.2288), 1244 ± 3 m/s; in data set [2] (x2 = 0.3564), 1266 ± 3 m/s; in data set [2] (x2 = 0.4969), 1288 ± 3 m/s. For the same compound, the speed of sound amounted to 1310 ± 3 m/s in data set [2] (x2 = 0.65), 1331 ± 3 m/s in data set [2] (x2 = 0.8165) and 1339 ± 3 m/s in data set [2] (x2 = 0.9244). In addition, the viscosity was determined as 0.376 ± 0.009 mPa·s in data set [2] (x2 = 0); 0.39 ± 0.009 mPa·s in data set [2] (x2 = 0.0437); 0.412 ± 0.009 mPa·s in data set [2] (x2 = 0.1095); 0.451 ± 0.01 mPa·s in data set [2] (x2 = 0.2288); 0.493 ± 0.01 mPa·s in data set [2] (x2 = 0.3564); 0.542 ± 0.011 mPa·s in data set [2] (x2 = 0.4969). Also, the values for the viscosity in data set [2] (x2 = 0.65), in data set [2] (x2 = 0.8165) and in data set [2] (x2 = 0.9244) were 0.601 ± 0.011 mPa·s, 0.673 ± 0.012 mPa·s and 0.727 ± 0.013 mPa·s, respectively.
As for `CC(C)c1ccccc1` [isopropylbenzene], in data set [1], the mass density stood at 857.1 ± 1 kg/m3, the speed of sound came out at 1338 ± 3 m/s and the viscosity is listed as 0.739 ± 0.013 mPa·s.
On to `CC(C)c1ccccc1` [isopropylbenzene] + CCC(C)=O, for which the mass density in data set [2] (x1 = 0.0377) amounted to 805 ± 0.9 kg/m3; in data set [2] (x1 = 0.0964), 812.2 ± 0.9 kg/m3; in data set [2] (x1 = 0.2025), 821.7 ± 0.9 kg/m3; in data set [2] (x1 = 0.3251), 829.5 ± 0.9 kg/m3; in data set [2] (x1 = 0.4599), 835.4 ± 0.9 kg/m3; in data set [2] (x1 = 0.615), 842 ± 0.9 kg/m3. Further, the figures for the mass density in data set [2] (x1 = 0.7937), in data set [2] (x1 = 0.9123) and in data set [2] (x1 = 1) were 849.2 ± 1 kg/m3, 853.9 ± 1 kg/m3 and 857.1 ± 1 kg/m3, respectively. The speed of sound in data set [2] (x1 = 0.0377) is listed as 1204 ± 3 m/s; in data set [2] (x1 = 0.0964) it was 1217 ± 3 m/s; in data set [2] (x1 = 0.2025), 1240 ± 3 m/s; in data set [2] (x1 = 0.3251) it was 1262 ± 3 m/s; in data set [2] (x1 = 0.4599), 1279 ± 3 m/s; in data set [2] (x1 = 0.615), 1290 ± 3 m/s. Besides, the speed of sound in data set [2] (x1 = 0.7937) is reported as 1298 ± 3 m/s; in data set [2] (x1 = 0.9123), 1308 ± 3 m/s; in data set [2] (x1 = 1) it was 1338 ± 3 m/s. For the same compound, the viscosity in data set [2] (x1 = 0.0377) is 0.388 ± 0.009 mPa·s; in data set [2] (x1 = 0.0964), 0.408 ± 0.009 mPa·s; in data set [2] (x1 = 0.2025), 0.445 ± 0.009 mPa·s; in data set [2] (x1 = 0.3251) it was 0.486 ± 0.01 mPa·s; in data set [2] (x1 = 0.4599) it was 0.535 ± 0.01 mPa·s; in data set [2] (x1 = 0.615) it was 0.592 ± 0.011 mPa·s. In addition, the viscosity in data set [2] (x1 = 0.7937) was found to be 0.66 ± 0.012 mPa·s; in data set [2] (x1 = 0.9123), 0.705 ± 0.012 mPa·s; in data set [2] (x1 = 1), 0.739 ± 0.013 mPa·s.

For orientation: mass density means the mass of a sample divided by its volume. As a reminder, the speed of sound is the propagation velocity of pressure waves in the medium. By viscosity is commonly meant the resistance of a fluid to flow.
